Assay results: US11976072B2, “Diacylglycerol kinase modulating compounds” (priority 2021, dated 2024)
Where two headings read alike, the source gives them in different places.

What was measured:
human DGKα = human DGKα (Homo sapiens, UniProt P23743); experiment: DGKα Biochemical Activity Assay (ADP-Glo); conditions: recombinant DGKα 1 nM, 100 μM ATP, 18:1 DAG/POPS/octylglucoside micelles, 1 hour at 25° C.; geometric mean; read-out: HTBS DGKa 1X ATP KM IC50;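 further: luminescent detection of ADP produced as DGKα phosphorylates DAG to phosphatidic acid, IC50 from four-parameter nonlinear curve fit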
[1] = system: Jurkat NFκB-luciferase cells; experiment: Jurkat NFκB-Luciferase Assay; format: cell-based; conditions: Homo sapiens
Procedure, shortened: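 Luminescence from One-Glo Ex, read 7 min post-addition, reports NFκB activation in Jurkat luciferase reporter cells. Cells, diluted to 1 million cells/ml in 10% FBS RPMI, were dispensed onto plates holding compound and washed, pre-bound antibody.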

[2] = Jurkat NFκB-luciferase cells activated with anti-CD3 antibody (OKT3), 2.5 hrs at 37° C., geometric mean, read-out: DGK NFKb Luciferase EC50
[3] = Jurkat, […], read-out: DGK NFKb Luciferase EC50 (nM)

human DGKα, sequence (P23743 whole entry): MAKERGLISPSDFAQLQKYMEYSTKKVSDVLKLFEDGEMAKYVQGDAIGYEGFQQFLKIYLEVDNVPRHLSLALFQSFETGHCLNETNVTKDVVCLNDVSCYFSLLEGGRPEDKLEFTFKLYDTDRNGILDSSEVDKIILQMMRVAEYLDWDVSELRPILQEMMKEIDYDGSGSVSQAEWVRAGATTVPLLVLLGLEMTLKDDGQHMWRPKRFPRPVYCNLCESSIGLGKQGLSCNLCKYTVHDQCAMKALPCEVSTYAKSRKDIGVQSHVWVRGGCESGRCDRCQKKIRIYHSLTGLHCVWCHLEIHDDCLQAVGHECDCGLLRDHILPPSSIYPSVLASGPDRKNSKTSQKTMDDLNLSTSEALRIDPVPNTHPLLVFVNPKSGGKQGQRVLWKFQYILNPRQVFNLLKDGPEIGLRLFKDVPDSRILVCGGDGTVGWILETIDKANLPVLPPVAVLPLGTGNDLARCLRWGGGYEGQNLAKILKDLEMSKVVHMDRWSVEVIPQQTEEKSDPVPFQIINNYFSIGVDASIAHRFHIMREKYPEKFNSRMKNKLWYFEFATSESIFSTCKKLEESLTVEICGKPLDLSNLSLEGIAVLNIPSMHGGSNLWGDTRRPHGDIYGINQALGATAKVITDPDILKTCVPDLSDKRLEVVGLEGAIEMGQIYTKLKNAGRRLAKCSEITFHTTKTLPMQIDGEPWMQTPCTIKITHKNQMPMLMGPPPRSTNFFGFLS

## Cc1nnc2nc(N3CCCCc4c(C#CC(C)(C)NC(=O)C5(C(F)(F)F)CC5)cccc43)c3c(F)cccc3n12 [Example 183, N-(4-(1-(6-fluoro-1-methyl-[1,2,4]triazolo[4,3-a]quinazolin-5-yl)-2,3,4,5-tetrahydro-1H-benzo[b]azepin-6-yl)-2-methylbut-3-yn-2-yl)-1-(trifluoromethyl)cyclopropane-1-carboxamide]
Human DGKα
  IC50: 28.4 nM
[1]; [2]
  EC50: 11.8 nM

## Cc1nnc2nc(N3CCOCc4c(C#CC(C)(C)C(C)(F)F)cccc43)c3c(F)c(F)ccc3n12 [Example 184, 6-(4,4-Difluoro-3,3-dimethyl-pent-1-ynyl)-1-(6,7-difluoro-1-methyl-[1,2,4]triazolo[4,3-a]quinazolin-5-yl)-3,5-dihydro-2H-4,1-benzoxazepine]
Human DGKα
  IC50: 7.51 nM
[1]; [2]
  EC50: 0.787 nM

## Cc1nnc2nc(N3CCCCc4c(C#CC5(C)COC5)cccc43)c3c(F)c(F)ccc3n12 [Example 185, 6,7-Difluoro-1-methyl-5-[6-[2-(3-methyloxetan-3-yl)ethynyl]-2,3,4,5-tetrahydro-1-benzazepin-1-yl]-[1,2,4]triazolo[4,3-a]quinazoline]
Human DGKα
  IC50: 4.58 nM
[1]; [2]
  EC50: 1.09 nM

## Cc1nnc2nc(N3CCCCc4c(C#CC(C)(C)C#N)cccc43)c3c(F)c(F)ccc3n12 [Example 186, 4-[1-(6,7-Difluoro-1-methyl-[1,2,4]triazolo[4,3-a]quinazolin-5-yl)-2,3,4,5-tetrahydro-1-benzazepin-6-yl]-2,2-dimethyl-but-3-ynenitrile]
Human DGKα
  IC50: 6.51 nM
[1]; [2]
  EC50: 2.84 nM

## Cc1nnc2nc(N3CCOCc4c(C#CC(C)(C)C(C)(F)F)cccc43)c3c(F)cccc3n12 [Example 187, 6-(4,4-Difluoro-3,3-dimethyl-pent-1-ynyl)-1-(6-fluoro-1-methyl-[1,2,4]triazolo[4,3-a]quinazolin-5-yl)-3,5-dihydro-2H-4,1-benzoxazepine]
Human DGKα
  IC50: 12.3 nM
[1]; [2]
  EC50: 1.45 nM

## Cc1nnc2nc(N3CCCCc4c(C#CC(C)(C)C#N)cccc43)c3c(F)cccc3n12 [Example 188, 4-[1-(6-Fluoro-1-methyl-[1,2,4]triazolo[4,3-a]quinazolin-5-yl)-2,3,4,5-tetrahydro-1-benzazepin-6-yl]-2,2-dimethyl-but-3-ynenitrile]
Human DGKα
  IC50: 9.86 nM
[1]; [2]
  EC50: 2.12 nM

## Cc1nnc2nc(N3CCOCc4c(C#CC(C)(C)C#N)cccc43)c3c(F)cccc3n12 [Example 189, 4-[1-(6-Fluoro-1-methyl-[1,2,4]triazolo[4,3-a]quinazolin-5-yl)-3,5-dihydro-2H-4,1-benzoxazepin-6-yl]-2,2-dimethyl-but-3-ynenitrile]
Human DGKα
  IC50: 1.84 nM
[1]; [2]
  EC50: 3.44 nM

## Cc1nnc2nc(N3CCOCc4c(C#CC(C)(C)C(F)F)cccc43)c3c(F)cccc3n12 [Example 190, 6-(4,4-Difluoro-3,3-dimethyl-but-1-ynyl)-1-(6-fluoro-1-methyl-[1,2,4]triazolo[4,3-a]quinazolin-5-yl)-3,5-dihydro-2H-4,1-benzoxazepine]
Human DGKα
  IC50: 6.91 nM
[1]; [2]
  EC50: 1.46 nM

## Cc1nnc2nc(N3CCOCc4c(C#CC5(C(F)F)CC5)cccc43)c3c(F)cccc3n12 [Example 191, 6-[2-[1-(Difluoromethyl)cyclopropyl]ethynyl]-1-(6-fluoro-1-methyl-[1,2,4]triazolo[4,3-a]quinazolin-5-yl)-3,5-dihydro-2H-4,1-benzoxazepine]
Human DGKα
  IC50: 3.66 nM
[1]; [2]
  EC50: 1.42 nM

## Cc1nnc2nc(N3CCCCc4c(C#CC5(C(F)(F)F)CC5)cccc43)c3c(F)cccc3n12 [Example 192]
Human DGKα
  IC50: 54.9 nM
[1]; [2]
  EC50: 0.892 nM

## Cc1nnc2nc(N3CCCCc4c(C#CC5(C)COC5)cccc43)c3c(F)cccc3n12 [Example 193]
Human DGKα
  IC50: 2.85 nM
[1]; [2]
  EC50: 0.871 nM

## Cc1nnc2nc(N3CCOCc4c(C#CC5(C)COC5)cccc43)c3c(F)cccc3n12 [Example 194, 1-(6-Fluoro-1-methyl-[1,2,4]triazolo[4,3-a]quinazolin-5-yl)-6-[2-(3-methyloxetan-3-yl)ethynyl]-3,5-dihydro-2H-4,1-benzoxazepine]
Human DGKα
  IC50: 0.773 nM
[1]; [2]
  EC50: 1.68 nM

## CCC1(C#Cc2cccc3c2COCCN3c2nc3nnc(C)n3c3cccc(F)c23)CC1 [Example 195, 6-[2-(1-Ethylcyclopropyl)ethynyl]-1-(6-fluoro-1-methyl-[1,2,4]triazolo[4,3-a]quinazolin-5-yl)-3,5-dihydro-2H-4,1-benzoxazepine]
Human DGKα
  IC50: 13.3 nM
[1]; [2]
  EC50: 0.382 nM

## Cc1nnc2nc(N3CCOCc4c(C#CC5(C)CC5)cccc43)c3c(F)c(F)ccc3n12 [Example 196, 1-(6,7-Difluoro-1-methyl-[1,2,4]triazolo[4,3-a]quinazolin-5-yl)-6-((1-methylcyclopropyl)ethynyl)-1,2,3,5-tetrahydrobenzo[e][1,4]oxazepine]
Human DGKα
  IC50: 2.49 nM
[1]; [2]
  EC50: 0.545 nM

## Cc1nnc2nc(N3CCCc4c(C#CC5(O)CCC6(CC5)CC6)cccc43)c3c(F)cccc3n12 [Example 197]
Human DGKα
  IC50: 11 nM
[1]; [2]
  EC50: 1.38 nM

## Cc1nnc2nc(N3CCCc4c(C#CC5(O)CC6CC(C6)C5)cccc43)c3c(F)cccc3n12 (stereo not shown) [Example 198, 3-((1-(6-fluoro-1-methyl-[1,2,4]triazolo[4,3-a]quinazolin-5-yl)-1,2,3,4-tetrahydroquinolin-5-yl)ethynyl)bicyclo[3.1.1]heptan-3-ol]
Human DGKα
  IC50: 10.8 nM
[1]; [3]
  EC50: 0.508 nM

## Cc1nnc2nc(N3CCCc4c(C#CC5(O)C[C@H]6C[C@H]6C5)cccc43)c3c(F)cccc3n12 (stereo partly drawn) [Example 199, (1R,5S)-3-((1-(6-fluoro-1-methyl-[1,2,4]triazolo[4,3-a]quinazolin-5-yl)-1,2,3,4-tetrahydroquinolin-5-yl)ethynyl)bicyclo[3.1.0]hexan-3-ol]
Human DGKα
  IC50: 3.83 nM
[1]; [3]
  EC50: 1.62 nM

## Cc1nnc2nc(N3CCOCc4c(C#CC5(C(C)(F)F)CC5)cccc43)c3c(F)c(F)ccc3n12 [Example 200, 6-[2-[1-(1,1-Difluoroethyl)cyclopropyl]ethynyl]-1-(6,7-difluoro-1-methyl-[1,2,4]triazolo[4,3-a]quinazolin-5-yl)-3,5-dihydro-2H-4,1-benzoxazepine]
Human DGKα
  IC50: 5.18 nM
[1]; [2]
  EC50: 0.858 nM

## CC(F)(F)C1(C#Cc2cccc3c2COCCN3c2nc3nncn3c3ccc(F)c(F)c23)CC1 [Example 201, 6-[2-[1-(1,1-Difluoroethyl)cyclopropyl]ethynyl]-1-(6,7-difluoro-[1,2,4]triazolo[4,3-a]quinazolin-5-yl)-3,5-dihydro-2H-4,1-benzoxazepine]
Human DGKα
  IC50: 6.77 nM
[1]; [2]
  EC50: 0.202 nM

## OC1(C#Cc2cccc3c2CCCN3c2nc3nncn3c3cccc(F)c23)CCCCC1 [Example 202, 1-((1-(6-Fluoro-[1,2,4]triazolo[4,3-a]quinazolin-5-yl)-1,2,3,4-tetrahydroquinolin-5-yl)ethynyl)cyclohexan-1-ol]
Human DGKα
  IC50: 3.88 nM
[1]; [3]
  EC50: 2.04 nM

## Fc1ccc2c(c(N3CCOCc4c(C#CC5(C(F)(F)F)CC5)cccc43)nc3nncn32)c1F [Example 203, 1-(6,7-Difluoro-[1,2,4]triazolo[4,3-a]quinazolin-5-yl)-6-[2-[1-(trifluoromethyl)cyclopropyl]ethynyl]-3,5-dihydro-2H-4,1-benzoxazepine]
Human DGKα
  IC50: 2.1 nM
[1]; [2]
  EC50: 0.307 nM

## CC(C)(C#Cc1cccc2c1COCCN2c1nc2nncn2c2ccc(F)c(F)c12)C(F)(F)F [Example 204, 1-(6,7-Difluoro-[1,2,4]triazolo[4,3-a]quinazolin-5-yl)-6-(4,4,4-trifluoro-3,3-dimethyl-but-1-ynyl)-3,5-dihydro-2H-4,1-benzoxazepine]
Human DGKα
  IC50: 3.83 nM
[1]; [2]
  EC50: 0.121 nM

## Cc1nnc2nc(N3CCCc4c(C#CC5(O)CCCC5)cccc43)c3c(F)cccc3n12 [Example 205, 1-((1-(6-fluoro-1-methyl-[1,2,4]triazolo[4,3-a]quinazolin-5-yl)-1,2,3,4-tetrahydroquinolin-5-yl)ethynyl)cyclopentan-1-ol]
Human DGKα
  IC50: 13.9 nM
[1]; [2]
  EC50: 16.6 nM

## Cc1nnc2nc(N3CCCc4c(C#CC5(O)CCCCC5)cccc43)c3c(F)cccc3n12 [Example 206, 1-((1-(6-fluoro-1-methyl-[1,2,4]triazolo[4,3-a]quinazolin-5-yl)-1,2,3,4-tetrahydroquinolin-5-yl)ethynyl)cyclohexan-1-ol]
Human DGKα
  IC50: 13.5 nM
[1]; [3]
  EC50: 5.07 nM

## Cc1nnc2nc(N3CCOCc4c(C#CC(C)(C)C(F)(F)F)cccc43)c3c(F)c(F)ccc3n12 [Example 207, 1-(6,7-Difluoro-1-methyl-[1,2,4]triazolo[4,3-a]quinazolin-5-yl)-6-(4,4,4-trifluoro-3,3-dimethyl-but-1-ynyl)-3,5-dihydro-2H-4,1-benzoxazepine]
Human DGKα
  IC50: 14.9 nM
[1]; [2]
  EC50: 4.04 nM

## CC(F)(F)C1(C#Cc2cccc3c2CCCCN3c2nc3nncn3c3ccc(F)c(F)c23)CC1 [Example 208, 5-(6-((1-(1,1-Difluoroethyl)cyclopropyl)ethynyl)-2,3,4,5-tetrahydro-1H-benzo[b]azepin-1-yl)-6,7-difluoro-[1,2,4]triazolo[4,3-a]quinazoline]
Human DGKα
  IC50: 18.7 nM
[1]; [2]
  EC50: 0.815 nM

## OC1(C#Cc2cccc3c2CCCN3c2nc3nncn3c3ccc(F)c(F)c23)CCCCC1 [Example 209, 1-[2-[1-(6,7-Difluoro-[1,2,4]triazolo[4,3-a]quinazolin-5-yl)-3,4-dihydro-2H-quinolin-5-yl]ethynyl]cyclohexanol]
Human DGKα
  IC50: 2.19 nM
[1]; [3]
  EC50: 1.17 nM

## Cc1nnc2nc(N3CCOCc4c(C#CC(C)(C)C(F)(F)F)cccc43)c3cc(F)ccc3n12 [Example 210]
Human DGKα
  IC50: 5.88 nM
[1]; [2]
  EC50: 0.657 nM

## Cc1nnc2nc(N3CCOCc4c(C#Cc5cn[nH]c5)cccc43)c3c(F)cccc3n12 [Example 211, 6-((1H-pyrazol-4-yl)ethynyl)-1-(6-fluoro-1-methyl-[1,2,4]triazolo[4,3-a]quinazolin-5-yl)-1,2,3,5-tetrahydrobenzo[e][1,4]oxazepine]
Human DGKα
  IC50: 6.35 nM
[1]; [2]
  EC50: 56.1 nM
